{"source": "patent US4695570A", "about": "“Antiviral compound use” (Burroughs Wellcome Co., priority 1985, dated 1987)", "key": {"adenosine deaminase": {"system": "adenosine deaminase", "details": "depends on adenosine deaminase; Good and de Miranda 1982; cited from earlier work"}, "Beagle dogs": {"system": "Beagle dogs", "test": "Toxicity study in Beagle dogs, per os", "type": "in vivo", "details": "40 mg/kg/day, once daily 5 days", "method": "Two male and 2 female Beagle dogs were given 6-deoxyacyclovir per os (once daily for 5 consecutive days) at a dose level of 40 mg/kg/day. There were no effects in 1 male and 1 female sacrificed at the end of the treatment period or in 1 male and 1 female sacrificed after a 2 week post-dose period."}, "[1]": {"test": "Oral absorption and acyclovir blood/plasma levels in rats", "type": "in vivo", "method": "The following experiments were carried out to determine the urinary excretion and plasma levels of acyclovir after oral dosing of rats with acyclovir, 6-deoxyacyclovir and the 6-amino analogue thereof i.e. 2,6-diamino-9-(2-hydroxyethoxymethyl)purine, hereinafter referred to as aminoacyclovir.\nLong Evans male rats were dosed by intragastric needle with the drug and placed in metabolic cages which separated urine from feces. The collected urine and plasma samples were analyzed for acyclovir content by a radioimmunoassay (Quinn, R. P., et al., Anal. Biochem., 98, 319 (1979))."}, "[2]": {"system": "xanthine oxidase/dehydrogenase or aldehyde oxidase", "source_text": "(§1) It is thus possible to synthesize acyclovir in the body (i.e. in vivo) by administering 6-deoxyacyclovir to mammals including humans wherein the 6-deoxyacyclovir is acted upon by xanthine oxidase/dehydrogenase or aldehyde oxidase in the body and is thereby converted into acyclovir. […] Oxygen or other appropriate electron acceptors such as ferricyanide ion or methylene blue may serve as the oxidizing agent. Microorganisms which contain or produce xanthine oxidase/dehydrogenase may be used to effect the conversion of 6-deoxyacyclovir to acyclovir."}, "[3]": {"system": "xanthine oxidase/dehydrogenase or aldehyde oxidase", "test": "Ex vivo (in vitro) enzymatic oxidation to acyclovir", "type": "biochemical", "source_text": "as §1"}, "[4]": {"system": "xanthine oxidase from bovine milk", "test": "Enzyme studies: rate of oxidation by xanthine oxidase from bovine milk", "type": "biochemical", "source_text": "The discovery that the 6-hydrogen purine of formula (I) above can be readily converted into its corresponding 6-hydroxy analogue is surprising since in previous studies with xanthine oxidase from bovine milk (H. Lettre et al. (1967) Biochem. Pharmacol., 16, 1747-1755; T. A. Krenitsky et al. (1972) Arch. Biophys., 150, 585-599) it was shown that 9-substitution obliterates or greatly diminishes the rate at which a variety of purines are oxidized."}, "[5]": {"system": "bovine milk xanthine oxidase", "test": "Enzymatic conversion of 6-deoxyacyclovir to acyclovir by bovine milk xanthine oxidase (Example 2)", "type": "biochemical", "details": "24 hours, 43.6 μM substrate, pH 6.8, 25° C, atmospheric oxygen; UV monitoring", "method": "A solution (20 μL) of a purified bovine milk xanthine oxidase containing 1.06 units (nmoles of xanthine oxidized per minute) of activity was added to 500 μL of a solution 43.6 μM with respect to 6-deoxyacyclovir, 0.05M with respect to potassium phosphate and 0.13 mM with respect to ethylenediaminetetraacetic acid at pH 6.8 and 25° C. The reaction mixture was equilibrated with atmospheric oxygen, and the oxygen served as the electron acceptor. […] The indentity of acyclovir as the product of the reaction was confirmed by its NMR spectrum."}, "[6]": {"details": "cited from earlier work"}, "[7]": {"system": "herpes viruses such as herpes simplex", "details": "cited from earlier work"}, "[8]": {"test": "Water solubility at 25° C", "type": "physicochemical"}}, "data": [{"compound": "Nc1nc(N)c2ncn(COCCO)c2n1", "note": "[aminoacyclovir, 2,6-diamino-9-(2-hydroxyethoxymethyl)purine]", "values": [{"measurement": "conversion to acyclovir in vivo", "setting": "adenosine deaminase", "value": "depends on adenosine deaminase for conversion to acyclovir in vivo"}]}, {"compound": "Nc1ncc2ncn(COCCO)c2n1", "note": "[6-deoxyacyclovir, 2-Amino-9-(2-hydroxyethoxymethyl)purine]", "values": [{"measurement": "effects in toxicity study", "setting": "Beagle dogs; after 2 week post-dose period", "value": "no effects"}, {"measurement": "effects in toxicity study", "setting": "Beagle dogs; end of treatment", "value": "no effects"}, {"measurement": "blood levels of acyclovir compared with oral acyclovir itself", "setting": "[1]", "value": "higher blood levels of acyclovir are obtainable with 6-deoxyacyclovir than with acyclovir itself"}, {"measurement": "absorption from the gastro-intestinal tract and plasma levels of acyclovir", "setting": "[1]; rats", "value": "efficient absorption from the gastro-intestinal tract and high plasma levels of the corresponding acyclovir"}, {"measurement": "conversion in vivo into acyclovir", "setting": "[2]", "value": "readily converted in vivo"}, {"measurement": "ex vivo (in vitro) enzymatic oxidation to acyclovir", "setting": "[3]", "value": "demonstrated that acyclovir may be synthesized"}, {"measurement": "rate of oxidation relative to the 9-unsubstituted purine", "setting": "[4]", "value": "at a faster rate than the 9-unsubstituted purine"}, {"measurement": "conversion to acyclovir", "setting": "[5]", "value": "nearly complete conversion to acyclovir"}]}, {"compound": "Nc1nc2c(ncn2COCCO)c(=O)[nH]1", "note": "[acyclovir, 9-(2-hydroxyethoxymethyl)guanine]", "values": [{"measurement": "absorption upon oral administration", "setting": "[6]", "value": "only moderately well absorbed upon oral administration"}, {"measurement": "activity against herpes viruses", "setting": "[7]; herpes viruses such as herpes simplex", "value": "particularly good activity against herpes viruses"}, {"measurement": "effectiveness upon topical or parenteral administration", "setting": "[7]; topical or parenteral", "value": "especially effective upon topical or parenteral administration"}, {"measurement": "solubility in water", "setting": "[8]", "value": 1250, "unit": "µg/mL"}]}]}
